Laboratory results as given in patent publication US20110152088A1, “Herbicidal Composition Comprising Flufenacet” (BAYER CROPSCIENCE AG, priority 2009, published 2011).

Assays:
APESV [1] = experiment: Greenhouse trial: PO application (test methods 2 and 5); type: in vivo, Apera Spica-venti; conditions: g of AS/ha: (A) 120, (B) 1600, (C) 140, (A)+(B)+(C) 120 + 1600 + 140
Method: (§1) In the standard design of the test, seeds of various broad-leaved weed and weed grass biotypes (origins) were sown in a 8-13 cm diameter pot filled with natural soil of a standard field soil (loamy silt; non-sterile) and covered with a covering soil layer of about 1 cm. The pots were then cultivated in a greenhouse (12-16 h of light, temperature day 20-22° C., night 15-18° C.) until the time of application. The pots were treated on a laboratory track sprayer with spray liquors comprising the compositions according to the invention, mixtures of the prior art or components used individually. Application of the active compounds or active compound combinations formulated as WG, WP, EC or otherwise was carried out at the appropriate growth stages of the plants. The application rate for the spray application was 100-600 l of water/ha. After the treatment, the plants were returned to the greenhouses.
(§2) About 3 weeks after the application, the soil action or/and foliar action was assessed visually according to a scale of 0-100% in comparison to an untreated comparative group: 0%=no noticeable effect compared to the untreated comparative group; 100%=full effect compared to the untreated comparative group.
(§3) (notes: the term “seeds” also includes vegetative propagation forms such as, for example, rhizome pieces; abbreviations used: h light=hours of illumination, g of AS/ha=gram of active substance per hectare, I/ha=liter per hectare, S=sensitive, R=resistant) • 1. Pre-emergence action against weeds: seeds of various broad-leaved weed and weed grass biotypes (origins) were sown in a 8-13 cm diameter pot filled with natural soil of a standard field soil (loamy silt; non-sterile) and covered with a covering soil layer of about 1 cm. The pots were then cultivated in a greenhouse (12-16 h of light, temperature day 20-22° C., night 15-18° C.) until the time of application. […]

MATCH [2] = experiment: Greenhouse trial: different soil types (test method 8); type: in vivo, Matricaria chamomilla; conditions: g of AS/ha: (A) 120, (B) 1200, (C) 140, (A)+(B)+(C) 120 + 1200 + 140
Method: as §1, §2
(§4) (notes: the term “seeds” also includes vegetative propagation forms such as, for example, rhizome pieces; abbreviations used: h light=hours of illumination, g of AS/ha=gram of active substance per hectare, I/ha=liter per hectare, S=sensitive, R=resistant) • 1. Pre-emergence action against weeds: seeds of various broad-leaved weed and weed grass biotypes (origins) were sown in a 8-13 cm diameter pot filled with natural soil of a standard field soil (loamy silt; non-sterile) and covered with a covering soil layer of about 1 cm. The pots were then cultivated in a greenhouse (12-16 h of light, temperature day 20-22° C., night 15-18° C.) until the time of application. The pots were treated at the BBCH stage 00-10 of the seeds/plants on a laboratory track sprayer with spray liquors comprising the compositions according to the invention, mixtures or components used individually, as WG, WP, EC or other formulations. The application rate for the spray application was 100-600 l of water/ha. After the treatment, the plants were returned to the greenhouses and, when required, treated with fertilizer and watered. • 2. Post-emergence action against weeds: seeds of various broad-leaved weed and weed grass biotypes (origins) were sown in a 8-13 cm diameter pot filled with natural soil of a standard field soil (loamy silt; non-sterile) and covered with a covering soil layer of about 1 cm. The pots were then cultivated in a greenhouse (12-16 h of light, temperature day 20-22° C., night 15-18° C.) until the time of application. The pots were treated at various BBCH stages between 11-25 of the seeds/plants, i.e. generally between two to three weeks after the start of the cultivation, on a laboratory track sprayer with spray liquors comprising the compositions according to the invention, mixtures or components used individually, as WG, WP, EC or other formulations. The application rate for the spray application was 100-600 l of water/ha. After the treatment, the plants were returned to the greenhouses and, when required, treated with fertilizer and watered. • 3. Pre-emergence action against weeds with and without incorporation of active compound: seeds of various broad-leaved weed and weed grass biotypes (origins) were sown in a 8-13 cm diameter pot filled with natural soil of a standard field soil (loamy silt; non-sterile). […]

LOLPE [3] = experiment: Greenhouse trial: PE application vs application 7 days prior to sowing (test method 6); type: in vivo, Lolium perenne
Method: as §1, §2, §4

AVEFA [4] = experiment: as above; type: in vivo, Avena fatua
Method: as §1, §2, §4

POAAN [5] = experiment: Greenhouse trial: PO application (test methods 2 and 5); type: in vivo, Poa annua; conditions: g of AS/ha: (A) 120, (B) 1600, (C) 140, (A)+(B)+(C) 120 + 1600 + 140
Method: as §1, §2, §3

AVEFA [6] = experiment: Greenhouse trial: PE application with different irrigation variants (test method 7); type: in vivo, Avena fatua; conditions: g of AS/ha: (A) 120, (B) 1200, (C) 140, (A)+(B)+(C) 120 + 1200 + 140
Method: as §1, §2, §4

LOLSS = experiment: Greenhouse trial: resistant biotypes following PE application (test method 9); type: in vivo, Lolium species; conditions: g of AS/ha: (A) 90, (B) 1200, (C) 140, (A)+(B)+(C) 90 + 1200 + 140, iodosulfuron 10; for activity LOLSS resistant / activity LOLSS sensitive: PE; for activity LOLSS resistant: resistant biotype; for activity LOLSS sensitive: sensitive biotype
Method: as §1, §2, §4

STEME = experiment: as above; type: in vivo, Stellaria media; conditions: g of AS/ha: (A) 90, (B) 1200, (C) 140, (A)+(B)+(C) 90 + 1200 + 140, iodosulfuron 10; for activity STEME resistant / activity STEME sensitive: PE; for activity STEME resistant: resistant biotype; for activity STEME sensitive: sensitive biotype
Method: as §1, §2, §4

LOLPE [7] = experiment: Greenhouse trial: PE application with different irrigation variants (test method 7); type: in vivo, Lolium perenne; conditions: g of AS/ha: (A) 120, (B) 1200, (C) 140, (A)+(B)+(C) 120 + 1200 + 140
Method: as §1, §2, §4

MATCH [8] = experiment: as above; type: in vivo, Matricaria chamomilla; conditions: g of AS/ha: (A) 120, (B) 1200, (C) 140, (A)+(B)+(C) 120 + 1200 + 140
Method: as §1, §2, §4

APESV [9] = experiment: Greenhouse trial: different sowing depths on PE application (test method 10); type: in vivo, Apera Spica-venti; conditions: g of AS/ha: (A) 90, (B) 1200, (C) 140, (A)+(B)+(C) 90 + 1200 + 140; for activity APESV 5 mm: sowing depth 5 mm; for activity APESV 20 mm: sowing depth 20 mm
Method: as §1, §2, §4

MATCH [10] = experiment: as above; type: in vivo, Matricaria chamomilla; conditions: g of AS/ha: (A) 90, (B) 1200, (C) 140, (A)+(B)+(C) 90 + 1200 + 140; for activity MATCH 5 mm: sowing depth 5 mm; for activity MATCH 20 mm: sowing depth 20 mm
Method: as §1, §2, §4

LOLPE [11] = experiment: Greenhouse trial: different soil types (test method 8); type: in vivo, Lolium perenne; conditions: g of AS/ha: (A) 120, (B) 1200, (C) 90, (A)+(B)+(C) 120 + 1200 + 90
Method: as §1, §2, §4

POAAN [12] = experiment: Greenhouse trial: PE soil application vs incorporation into the soil (test methods 1, 3 and 4); type: in vivo, Poa annua; conditions: g of AS/ha: (A) 120, (B) 1200, (C) 140, (A)+(B)+(C) 120 + 1200 + 140
Method: as §1, §2, §4

HORVS [13] = experiment: Greenhouse trial: different soil types (test method 8); type: in vivo, Hordeum vulgare, summer barley; conditions: g AS/ha: (A) 120, (B) 1200, (C) 140, (A)+(B)+(C) 120 + 1200 + 140
Method: as §1, §2, §3

HORVS [14] = experiment: Greenhouse trial: PO application (test methods 2 and 5); type: in vivo, Hordeum vulgare, summer barley; conditions: g of AS/ha: (A) 120, (B) 1600, (C) 140, (A)+(B)+(C) 120 + 1600 + 140
Method: as §1
as §2, with “group. […]” for “group.”

TRZAS [15] = experiment: Greenhouse trial: PE soil application vs incorporation into the soil (test methods 1, 3 and 4); type: in vivo, Triticum aestivum, summer wheat; conditions: g of AS/ha: (A) 120, (B) 1200, (C) 140, (A)+(B)+(C) 120 + 1200 + 140
Method: as §1
as §2, with “group. […]” for “group.”

HORVS [16] = experiment: Greenhouse trial: PE application vs application 7 days prior to sowing (test method 6); type: in vivo, Hordeum vulgare, summer barley; conditions: g of AS/ha: (A) 90, (B) 1200, (C) 140, mixture 90 + 1200 + 140
Method: as §1
as §2, with “group. […]” for “group.”

TRZAS [17] = experiment: as above; type: in vivo, Triticum aestivum, summer wheat; conditions: g of AS/ha: (A) 90, (B) 1200, (C) 140, (A)+(B)+(C) 90 + 1200 + 140
Method: as §1
as §2, with “group. […]” for “group.”

[18] = PE application, g of AS/ha: (A) 90, (B) 1200, (C) 140, mixture 90 + 1200 + 140
[19] = application 7 days prior to sowing, g of AS/ha: (A) 90, (B) 1200, (C) 140, (A)+(B)+(C) 90 + 1200 + 140

SMILES | activity APESV (APESV [1]) | activity MATCH IU soil (MATCH [2]) | activity MATCH IU/EC73 soil (MATCH [2]) | activity LOLPE (LOLPE [3]; [18]) | activity LOLPE (LOLPE [3]; [19]) | activity AVEFA (AVEFA [4]; [18]) | activity AVEFA (AVEFA [4]; [19]) | activity POAAN (POAAN [5]) | activity AVEFA (AVEFA [6]; Irrigation from above) | activity AVEFA (AVEFA [6]; Irrigation from below) | activity LOLSS resistant (LOLSS) | activity LOLSS sensitive (LOLSS) | activity STEME resistant (STEME) | activity STEME sensitive (STEME) | activity LOLPE (LOLPE [7]; Irrigation from above) | activity LOLPE (LOLPE [7]; Irrigation from below) | activity MATCH (MATCH [8]; Irrigation from above) | activity MATCH (MATCH [8]; Irrigation from below) | activity APESV 5 mm (APESV [9]) | activity APESV 20 mm (APESV [9]) | other results
CC(C)N(C(=O)COc1nnc(C(F)(F)F)s1)c1ccc(F)cc1 [(A) flufenacet, N-(4-fluorophenyl)-N-(1-methylethyl)-2-[[5-(trifluoromethyl)-1,3,4-thiadiazol-2-yl]oxy]acetamide] | 60% | 80% | 0% | 90% | 80% | 80% | 70% | 60% | 85% | 50% | 10% | 85% | 0% | 0% | 80% | 78% | 49% | 35% | 65% | 70% | Difference Δ^D activity resistant to activity sensitive, STEME (STEME): Δ^D ± 0%; activity MATCH 5 mm (MATCH [10]): 30%; activity MATCH 20 mm (MATCH [10]): 30%; activity LOLPE IU soil (LOLPE [11]): 89%; activity LOLPE IU/EC73 soil (LOLPE [11]): 0%; activity POAAN (POAAN [12]; Incorporation): 90%; activity POAAN (POAAN [12]; PE application): 70%
CCCN(CCC)C(=O)SCc1ccccc1 [(B) prosulfocarb, S-(phenylmethyl) dipropylcarbamothioate] | 20% | 10% | 0% | 80% | 0% | 80% | 10% | 30% | 5% | 10% | 65% | 85% | 40% | 70% | 10% | 5% | 0% | 0% | 50% | 20% | activity MATCH 5 mm (MATCH [10]): 0%; activity MATCH 20 mm (MATCH [10]): 0%; activity LOLPE IU soil (LOLPE [11]): 0%; Difference of the soil types Δ^D, LOLPE (LOLPE [11]; IU/EC73 soil vs IU soil): Δ^D + 0%; activity LOLPE IU/EC73 soil (LOLPE [11]): 0%; activity POAAN (POAAN [12]; Incorporation): 85%; activity POAAN (POAAN [12]; PE application): 35%
CSc1nnc(C(C)(C)C)c(=O)n1N [(C) metribuzin, 4-amino-6-(1,1-dimethylethyl)-3-(methylthio)-1,2,4-triazon-5(4H)-one] | 79% | 0% | 15% | 70% | 0% | 10% | 0% | 79% | 30% | 30% | 70% | 70% | 98% | 100% | 55% | 48% | 0% | 60% | 75% | 100% | Difference of the soil types Δ^D, MATCH (MATCH [2]; IU/EC73 soil vs IU soil): Δ^D + 5%; activity HORVS IU soil (crop plant) (HORVS [13]; IU soil): 0%; Difference of the soil types, HORVS (HORVS [13]; IU/EC73 soil vs IU soil): 0%; activity HORVS IU/EC73 soil (crop plant) (HORVS [13]; IU/EC73 soil): 0%; activity HORVS (crop plant) (HORVS [14]): 70%; Difference Δ^D activity resistant to activity sensitive, LOLSS (LOLSS): Δ^D ± 0%; activity TRZAS (crop plant) (TRZAS [15]; Incorporation): 100%; activity TRZAS (crop plant) (TRZAS [15]; PE application): 65%; activity HORVS (crop plant) (HORVS [16]): 50%; activity MATCH 5 mm (MATCH [10]): 100%; activity MATCH 20 mm (MATCH [10]): 70%; activity LOLPE IU soil (LOLPE [11]): 75%; activity LOLPE IU/EC73 soil (LOLPE [11]): 5%; activity TRZAS (crop plant) (TRZAS [17]): 30%; activity POAAN (POAAN [12]; Incorporation): 68%; activity POAAN (POAAN [12]; PE application): 0%
COc1nc(C)nc(NC(=O)NS(=O)(=O)c2cc(I)ccc2C(=O)O)n1 [iodosulfuron] |  |  |  |  |  |  |  |  |  |  | 50% | 98% | 40% | 90% |  |  |  |  |  |  | 
